“Also recorded” adds a separate entry of the source. Like-named read-outs stand apart in the source and are kept apart here.
What was measured:
kynureninase [1] = settings: cited from earlier work
kynureninase [2] = settings: Takeuchi et al. (1980); cited from earlier work
Kynureninase [3] = target: T1, Kynureninase (Pseudomonas fluorescens, UniProt P83788); test: Reactivity of dihydrokynurenine and L-kynurenine with bacterial kynureninase; type: biochemical; settings: pH 8.0, 25°; for reactivity with kynureninase (in words): o-aminobenzaldehyde formation at 360 nm
T1 construct: Bacterial kynureninase was prepared from cells of Pseudomonas fluorescens; endogenous in cells; partially purified by DEAE-cellulose and ammonium sulfate
T1 sequence (P83788 1-416): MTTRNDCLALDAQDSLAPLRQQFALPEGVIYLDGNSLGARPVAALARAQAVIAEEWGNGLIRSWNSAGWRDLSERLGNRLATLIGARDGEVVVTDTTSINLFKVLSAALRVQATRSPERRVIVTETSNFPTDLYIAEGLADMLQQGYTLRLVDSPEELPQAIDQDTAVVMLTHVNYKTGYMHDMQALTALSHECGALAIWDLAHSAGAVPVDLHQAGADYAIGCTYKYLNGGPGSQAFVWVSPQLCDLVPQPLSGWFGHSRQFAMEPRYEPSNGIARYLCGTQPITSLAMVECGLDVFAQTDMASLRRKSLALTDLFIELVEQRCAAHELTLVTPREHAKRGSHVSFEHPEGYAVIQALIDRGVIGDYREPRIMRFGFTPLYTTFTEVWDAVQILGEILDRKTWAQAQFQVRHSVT
Protocol: (§1) Bacterial kynureninase was prepared from cells of Pseudomonas fluorescens (ATCC 11250, for example) essentially as described by .Hayaishi and Stanier (1952) J. Biol. Chem. 195:735-740. Cells were grown on a minimal medium containing 0.1% L-tryptophan as the sole carbon and nitrogen source.
From 100 1 of medium, grown for 18 h at 30° C. […] The cells were suspended in 1 of 0.01M potassiumphosphate, pH 7.0, and disrupted by 2 passages through a Manton-Gaulin homogenizer. After centrifugation of the cell extract for 1 h at 10000 g, the enzyme was partially purified by ion-exchange chromatography on DEAE-cellulose and ammonium sulfate precipitation.
The reactivity of the two dihydrokynurenines with kynureninase in 0.1M potassium phosphate buffer, pH 8.0, at 25° was examined. Reaction was followed by the appearance of o-aminobenzaldehyde, as determined spectrophotometrically by the increase in absorbance at 360 nm (See Tanizawa and Soda (1979) Biochem. (Tokyo) 86:1199-1209, which is incorporated by reference herein).

rat liver kynureninase [4] = target: T2, rat liver kynureninase (Rattus norvegicus, UniProt P70712); test: Inhibition of rat liver kynureninase (cysteine conjugate β-lyase activity with S-(2-benzothiazolyl)cysteine); type: biochemical; settings: S-(2-benzothiazolyl)cysteine as substrate
T2 construct: host or cells: rat liver
T2 sequence (P70712 1-464): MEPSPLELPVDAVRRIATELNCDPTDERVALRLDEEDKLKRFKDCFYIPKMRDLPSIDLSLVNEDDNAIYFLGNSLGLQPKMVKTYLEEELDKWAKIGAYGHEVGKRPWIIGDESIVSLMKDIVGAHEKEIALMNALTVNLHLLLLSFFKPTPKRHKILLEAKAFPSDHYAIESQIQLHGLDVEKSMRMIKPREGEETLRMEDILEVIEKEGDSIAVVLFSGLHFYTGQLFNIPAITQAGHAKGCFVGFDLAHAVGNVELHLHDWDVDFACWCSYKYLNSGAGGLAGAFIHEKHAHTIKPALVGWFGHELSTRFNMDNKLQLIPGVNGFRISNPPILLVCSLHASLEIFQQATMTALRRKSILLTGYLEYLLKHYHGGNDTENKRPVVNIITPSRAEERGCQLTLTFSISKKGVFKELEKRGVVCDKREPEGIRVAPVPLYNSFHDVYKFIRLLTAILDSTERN
Protocol: Inhibition of mammalian kynureninase can be measured using several different assays for enzyme activity. Rat liver kynureninase is obtained from homogenization of rat liver, followed by precipitation with (NH4)2 SO4, as described by Stevens, J. L., J. Biol. Chem. (1985) 260:7945-7950, which is incorporated by reference herein. The activity of rat liver kynureninase was assessed by measurement of the cysteine conjugate β-lyase activity, as described by Stevens (supra), with S-(2-benzothiazolyl)cysteine, a nonphysiological chromophoric substrate. Inhibition of kynureninase by the dihydrokynurenine diastereomers was assessed with respect to reaction with that substrate.

Kynureninase [5] = target: T1, Kynureninase; test: Inhibition of bacterial kynureninase by dihydrokynurenine; type: biochemical; settings: for inhibition of reaction with L-kynurenine (in words): bacterial kynureninase; for Ki value (comparison in words): compared between dihydrokynurenine diastereomers
Protocol: As an extension of these mechanistic studies, the reactivities of dihydrokynurenine diastereomers were examined. […] This increased affinity of (αS,γS)-dihydrokynurenine is characteristic of mechanism-based, or "transition-state analogue" inhibitors.
as §1
(§2) From 100 1 of medium, grown for 18 h at 30° C. 230 g of wet cell paste was obtained. The cells were suspended in 1 of 0.01M potassiumphosphate, pH 7.0, and disrupted by 2 passages through a Manton-Gaulin homogenizer. After centrifugation of the cell extract for 1 h at 10000 g, the enzyme was partially purified by ion-exchange chromatography on DEAE-cellulose and ammonium sulfate precipitation.
Inhibition of kynureninase by dihydrokynurenine was measured by including the potential inhibitor in the enzyme assay mixture (see Example 1 and Tanzawa and Soda (1979) supra) and determining the apparent Km for L-kynurenine (the preferred substrate of bacterial kynurenine) in the absence and presence of the potential inhibitor. Ki values were then calculated using the standard equation: […]
Inhibition of kynureninase by the (αS,γR)- and (αS,γS)-diastereomers of dihydrokynurenine was examined and Ki 's were determined. […] The Ki value for the […] was lower than for the (αS,γR)-diastereomer.

cystsine lyase = settings: cited from earlier work
rat liver kynureninase [6] = target: T2, rat liver kynureninase; settings: cited from earlier work
rat renal C-S lyase = settings: kidney slice methodology; cited from earlier work
Kynureninase [7] = target: T1, Kynureninase; test: Competitive inhibition of kynureninase by S-aryl cysteines and S-aryl cysteine sulfones; type: biochemical; settings: Table 1; competitive inhibition vs L-kynurenine, pH 7.8, 25° C.; footnote 1: 0.07 is an upper limit; read-out: Ki
Protocol: as §1, §2
Kynureninase activity was measured at 25° C. by following the decrease in absorbance at 360 nm (ε=-4500M^-1 cm^-1). A typical assay mixture contained 0.4 mM L-kynurenine in 0.04M potassium phosphate, pH 7.8, containing 40 μM pyridoxal-5'-phosphate, at 25° C. The reactions of S-aryl cysteines and S-aryl cysteine sulfones with kynureninase were performed using a spectrophotometric coupled assay with lactate dehydrogenase and NADH, by monitoring a decrease in absorbance due to pyruvate formation. A typical assay mixture contained 30 μl lactate dehydrogenase solution (2 mg/ml), 0.1 mM NADH, 40 μM pyridoxal-5'-phosphate, 0.04M tris.HCl buffer, pH 7.8, with varying concentrations of the compounds. The competitive inhibition of these compounds was measured by variation of L-kynurenine concentrations at several fixed values of the inhibitor. Km and Vmax values were calculated by fitting of initial rate data to the Michaelis-Menten equation with ENZFITTER (Elsevier) on a Z-286 personal computer. KI values were determined from the equation:
v=Vmax[S]/ (Km (1+[I]/Ki)+[S]

bacterial kynureninase [8] = settings: Kishore (1984), cited from earlier work
[9] = test system: cystsine conjugate β-lyase; settings: cited from earlier work
bacterial kynureninase [10] = settings: Tanizawa and Soda (1979); cited from earlier work
[11] = substrate: Nc1ccccc1C(=O)C[C@H](N)C(=O)O; test: Reactivity of dihydrokynurenine and L-kynurenine with bacterial kynureninase; type: biochemical, Pseudomonas fluorescens; settings: other: L-kynurenine, present work, 30.0 °C

NC(C(=O)O)C(F)(F)C(=O)c1ccccc1 (stereo not drawn) [2,2-difluoro-α-benzoyl alanine, α-amino-β,β-difluoro-γ-oxobenzene butanoic acid]
inhibition of kynureninase (in words) (kynureninase [1]): competitive inhibitor of kynureninase

Nc1c(O)cccc1C(=O)O [3-hydroxyanthranilate, 3-hydroxyanthranilic acid]
inhibition of kynureninase (in words) (kynureninase [2]): inhibit the enzyme

Nc1ccccc1[C@H](O)C[C@H](N)C(=O)O [(αS,γR)-dihydrokynurenine, (αS;γR)-α,2-diamino-γ-hydroxybenzenebutanoic acid]
rate of reaction relative to L-kynurenine (Kynureninase [3]; 0.1M potassium phosphate buffer): about 5%
reactivity with kynureninase (in words) (Kynureninase [3]): reacted slowly with kynureninase
reactivity with kynureninase (in words) (Kynureninase [3]; listed as (αS,γR)-Dihydrokynurenine): slow substrate
inhibition of rat liver kynureninase (in words) (rat liver kynureninase [4]): inhibit the reaction of rat liver kynureninase
inhibition of reaction with L-kynurenine (in words) (Kynureninase [5]; listed as (αS,γR)-diastereomer): strongly inhibited; also recorded: competitive inhibitors
Ki value (comparison in words) (Kynureninase [5]): lower
Ki (Kynureninase [5]; competitive with respect to L-kynurenine): 5 µM

Nc1ccccc1[C@@H](O)C[C@H](N)C(=O)O [(αS,γS)-dihydrokynurenine, (αS,γS)-α,2-diamino-γ-hydroxybenzenebutanoic acid]
reactivity with kynureninase (in words) (Kynureninase [3]): not a substrate for the kynureninase
reactivity with kynureninase (in words) (Kynureninase [3]; listed as (αS,γS) diastereomer): unreactive
reactivity with kynureninase (in words) (Kynureninase [3]; listed as (αS,γS)-diastereomer): No significant reaction
inhibition of rat liver kynureninase (in words) (rat liver kynureninase [4]; listed as (αS,γS) diastereomer): stronger competitive inhibitor
inhibition of rat liver kynureninase (in words) (rat liver kynureninase [4]; listed as (αS,δS)): inhibit the reaction of rat liver kynureninase
Ki (rat liver kynureninase [4]; rat liver kynureninase): ~690 µM
binding relative to L-kynurenine (in words) (Kynureninase [5]): binds about more tightly than does L-kynurenine
inhibition of reaction with L-kynurenine (in words) (Kynureninase [5]): competitive inhibitor of the enzyme
inhibition of reaction with L-kynurenine (in words) (Kynureninase [5]; listed as (αS,γS)-diastereomer): strongly inhibited; also recorded: competitive inhibitors
Ki value (comparison in words) (Kynureninase [5]): lower

NO [H2 NOH]
inhibition of cystsine lyase (in words) (cystsine lyase): significantly inhibited

N[C@@H](CSc1nc2ccccc2s1)C(=O)O [S-2-(benzothiazolyl)-L-cysteine]
cleavage by rat liver kynureninase (in words) (rat liver kynureninase [6]): cleavage of S-2-(benzothiazolyl)-L-cysteine to give 2-mercaptobenzothiazole, pyruvate and ammonia

N[C@@H](CSc1c([N+](=O)[O-])cccc1[N+](=O)[O-])C(=O)O [S-(2,6-dinitrophenyl)-L-cysteine]
inhibition of C-S lyase (in words) (rat renal C-S lyase): inhibit

N[C@@H](CSc1ccccc1[N+](=O)[O-])C(=O)O [S-(2-nitrophenyl)-L-cysteine]
Ki (Kynureninase [7]): 100 µM
inhibition of C-S lyase (in words) (rat renal C-S lyase): inhibit
Ki (bacterial kynureninase [8]): 100 µM
inactivation of kynureninase (in words) (bacterial kynureninase [8]): inactivates kynureninase; also recorded: most efficient suicide substrate at low concentrations; also recorded: suicide inhibitor of kynureninase
reaction with kynureninase (in words) (bacterial kynureninase [8]): react with kynureninase to give pyruvate and ammonia
inactivation of kynureninase (in words) (bacterial kynureninase [8]; listed as S-(2-nitrophenyl)-L-cystsine): inactivated kynureninase

N[C@@H](CSc1ccc([N+](=O)[O-])cc1)C(=O)O [S-(4-nitrophenyl)-L-cysteine]
inhibition of C-S lyase (in words) (rat renal C-S lyase): inhibit

N[C@@H](CSCc1ccccc1)C(=O)O [S-benzyl-L-cysteine]
β-lyase-mediated metabolism (in words) [9]: cleaved to give pyruvate

NOCC(=O)O [aminooxyacetic acid]
inhibition of β-lyase (in words) [9]: inhibitor of the β-lyase
inhibition of cystsine lyase (in words) (cystsine lyase): most inhibitory derivative tested

Nc1ccccc1C(=O)O [anthranilic acid]
inhibition of kynureninase (in words) (kynureninase [2]): inhibit the enzyme
inhibition of bacterial kynureninase (in words) (bacterial kynureninase [10]): inhibitors

B1: Kynureninase (Pseudomonas fluorescens) (protein)
chain: T1 sequence (P83788 1-416)
notes: Bacterial kynureninase was prepared from cells of Pseudomonas fluorescens; endogenous in cells; partially purified by DEAE-cellulose and ammonium sulfate
Km [11]: 25 µM

From US5516936A, “Inhibitors of kynureninase” (University of Georgia Research Foundation, Inc., priority 1993, dated 1996)
